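Where inhibition never reached the appropriate level, the endpoint shown equals the highest concentration tested. Otherwise, values were interpolated linearly from a five-concentration, 48-hour dose response in 96-well plates. The concentration for full growth arrest is given as TGI.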
Legend:
Experiment in all cases: growth of human tumour cells (NCI), 48 h
786-0 renal = test system: 786-0 renal
A498 renal = test system: A498 renal
A549 NSCLC = test system: A549 NSCLC
ACHN renal = test system: ACHN renal
BT-549 breast = test system: BT-549 breast
CAKI-1 renal = test system: CAKI-1 renal
CCRF-CEM leukemia = test system: CCRF-CEM leukemia
COLO 205 colon = test system: COLO 205 colon
DU-145 prostate = test system: DU-145 prostate
EKVX NSCLC = test system: EKVX NSCLC
HCC-2998 colon = test system: HCC-2998 colon
HCT-116 colon = test system: HCT-116 colon
HCT-15 colon = test system: HCT-15 colon
HL-60(TB) leukemia = test system: HL-60(TB) leukemia
HOP-62 NSCLC = test system: HOP-62 NSCLC
HOP-92 NSCLC = test system: HOP-92 NSCLC
HS 578T breast = test system: HS 578T breast
HT29 colon = test system: HT29 colon
IGROV1 ovarian = test system: IGROV1 ovarian
K-562 leukemia = test system: K-562 leukemia
KM12 colon = test system: KM12 colon
LOX IMVI melanoma = test system: LOX IMVI melanoma
M14 melanoma = test system: M14 melanoma
MCF7 breast = test system: MCF7 breast
MDA-MB-231 breast = test system: MDA-MB-231 breast
MDA-MB-435 = test system: MDA-MB-435
MDA-N = test system: MDA-N
MOLT-4 leukemia = test system: MOLT-4 leukemia
NCI-H226 lung = test system: NCI-H226 lung
NCI-H23 lung = test system: NCI-H23 lung
NCI-H460 lung = test system: NCI-H460 lung
NCI-H522 lung = test system: NCI-H522 lung
NCI/ADR-RES ovarian = test system: NCI/ADR-RES ovarian
OVCAR-3 ovarian = test system: OVCAR-3 ovarian
OVCAR-4 ovarian = test system: OVCAR-4 ovarian
OVCAR-5 ovarian = test system: OVCAR-5 ovarian
OVCAR-8 ovarian = test system: OVCAR-8 ovarian
PC-3 prostate = test system: PC-3 prostate
RXF 393 renal = test system: RXF 393 renal
SF-268 CNS = test system: SF-268 CNS
SF-295 CNS = test system: SF-295 CNS
SF-539 CNS = test system: SF-539 CNS
SK-MEL-2 melanoma = test system: SK-MEL-2 melanoma
SK-MEL-28 melanoma = test system: SK-MEL-28 melanoma
SK-MEL-5 melanoma = test system: SK-MEL-5 melanoma
SK-OV-3 ovarian = test system: SK-OV-3 ovarian
SN12C renal = test system: SN12C renal
SNB-19 CNS = test system: SNB-19 CNS
SR leukemia = test system: SR leukemia
SW-620 colon = test system: SW-620 colon
T-47D breast = test system: T-47D breast
TK-10 renal = test system: TK-10 renal
U251 CNS = test system: U251 CNS
UACC-257 melanoma = test system: UACC-257 melanoma
UACC-62 melanoma = test system: UACC-62 melanoma
UO-31 renal = test system: UO-31 renal
MALME-3M melanoma = test system: MALME-3M melanoma
RPMI-8226 leukemia = test system: RPMI-8226 leukemia
SNB-75 CNS = test system: SNB-75 CNS

SMILES: CCN1C(Cl)=NS(=O)(=O)c2ccccc21
- TGI (786-0 renal): 64.6 µM
- TGI (A498 renal): 44.6 µM
- TGI (A549 NSCLC): > 100 µM
- TGI (ACHN renal): 34.1 µM
- TGI (BT-549 breast): 44 µM
- TGI (CAKI-1 renal): 4.31 µM
- TGI (CCRF-CEM leukemia): 81 µM
- TGI (COLO 205 colon): 32.5 µM
- TGI (DU-145 prostate): > 100 µM
- TGI (EKVX NSCLC): 53.7 µM
- TGI (HCC-2998 colon): 45.7 µM
- TGI (HCT-116 colon): 74 µM
- TGI (HCT-15 colon): 35.2 µM
- TGI (HL-60(TB) leukemia): 87.2 µM
- TGI (HOP-62 NSCLC): 70.1 µM
- TGI (HOP-92 NSCLC): 42.1 µM
- TGI (HS 578T breast): > 100 µM
- TGI (HT29 colon): > 100 µM
- TGI (IGROV1 ovarian): > 100 µM
- TGI (K-562 leukemia): 39.3 µM
- TGI (KM12 colon): > 100 µM
- TGI (LOX IMVI melanoma): 36.7 µM
- TGI (M14 melanoma): 32.8 µM
- TGI (MCF7 breast): > 100 µM
- TGI (MDA-MB-231 breast): 65.1 µM
- TGI (MDA-MB-435): > 100 µM
- TGI (MDA-N): > 100 µM
- TGI (MOLT-4 leukemia): > 100 µM
- TGI (NCI-H226 lung): 55.7 µM
- TGI (NCI-H23 lung): 52.5 µM
- TGI (NCI-H460 lung): 64.7 µM
- TGI (NCI-H522 lung): 24.6 µM
- TGI (NCI/ADR-RES ovarian): 85.2 µM
- TGI (OVCAR-3 ovarian): 34.8 µM
- TGI (OVCAR-4 ovarian): 47.8 µM
- TGI (OVCAR-5 ovarian): 76 µM
- TGI (OVCAR-8 ovarian): > 100 µM
- TGI (PC-3 prostate): > 100 µM
- TGI (RXF 393 renal): 32.2 µM
- TGI (SF-268 CNS): > 100 µM
- TGI (SF-295 CNS): > 100 µM
- TGI (SF-539 CNS): 35.9 µM
- TGI (SK-MEL-2 melanoma): > 100 µM
- TGI (SK-MEL-28 melanoma): > 100 µM
- TGI (SK-MEL-5 melanoma): 33.1 µM
- TGI (SK-OV-3 ovarian): > 100 µM
- TGI (SN12C renal): 37.9 µM
- TGI (SNB-19 CNS): > 100 µM
- TGI (SR leukemia): > 100 µM
- TGI (SW-620 colon): > 100 µM
- TGI (T-47D breast): 78.6 µM
- TGI (TK-10 renal): 37 µM
- TGI (U251 CNS): > 100 µM
- TGI (UACC-257 melanoma): 80.8 µM
- TGI (UACC-62 melanoma): 25.6 µM
- TGI (UO-31 renal): 32.1 µM

SMILES: Cn1ncc(NCCn2cnc3c2c(=O)n(C)c(=O)n3C)c(Cl)c1=O
- TGI (786-0 renal): > 100 µM
- TGI (A498 renal): > 100 µM
- TGI (A549 NSCLC): > 100 µM
- TGI (ACHN renal): > 100 µM
- TGI (BT-549 breast): > 100 µM
- TGI (CAKI-1 renal): > 100 µM
- TGI (CCRF-CEM leukemia): > 100 µM
- TGI (COLO 205 colon): > 100 µM
- TGI (DU-145 prostate): > 100 µM
- TGI (EKVX NSCLC): > 100 µM
- TGI (HCC-2998 colon): > 100 µM
- TGI (HCT-116 colon): > 100 µM
- TGI (HCT-15 colon): > 100 µM
- TGI (HL-60(TB) leukemia): > 100 µM
- TGI (HOP-62 NSCLC): > 100 µM
- TGI (HOP-92 NSCLC): > 100 µM
- TGI (HS 578T breast): > 100 µM
- TGI (HT29 colon): > 100 µM
- TGI (IGROV1 ovarian): > 100 µM
- TGI (K-562 leukemia): > 100 µM
- TGI (KM12 colon): > 100 µM
- TGI (LOX IMVI melanoma): > 100 µM
- TGI (M14 melanoma): > 100 µM
- TGI (MALME-3M melanoma): > 100 µM
- TGI (MCF7 breast): > 100 µM
- TGI (MDA-MB-231 breast): > 100 µM
- TGI (MDA-MB-435): > 100 µM
- TGI (MDA-N): > 100 µM
- TGI (MOLT-4 leukemia): > 100 µM
- TGI (NCI-H226 lung): > 100 µM
- TGI (NCI-H23 lung): > 100 µM
- TGI (NCI-H460 lung): > 100 µM
- TGI (NCI-H522 lung): > 100 µM
- TGI (NCI/ADR-RES ovarian): > 100 µM
- TGI (OVCAR-3 ovarian): > 100 µM
- TGI (OVCAR-4 ovarian): > 100 µM
- TGI (OVCAR-5 ovarian): > 100 µM
- TGI (OVCAR-8 ovarian): > 100 µM
- TGI (PC-3 prostate): > 100 µM
- TGI (RPMI-8226 leukemia): > 100 µM
- TGI (RXF 393 renal): > 100 µM
- TGI (SF-268 CNS): > 100 µM
- TGI (SF-295 CNS): > 100 µM
- TGI (SF-539 CNS): > 100 µM
- TGI (SK-MEL-2 melanoma): > 100 µM
- TGI (SK-MEL-28 melanoma): > 100 µM
- TGI (SK-MEL-5 melanoma): > 100 µM
- TGI (SK-OV-3 ovarian): > 100 µM
- TGI (SN12C renal): > 100 µM
- TGI (SNB-19 CNS): > 100 µM
- TGI (SR leukemia): > 100 µM
- TGI (SW-620 colon): > 100 µM
- TGI (T-47D breast): > 100 µM
- TGI (TK-10 renal): > 100 µM
- TGI (U251 CNS): > 100 µM
- TGI (UACC-257 melanoma): > 100 µM
- TGI (UACC-62 melanoma): > 100 µM
- TGI (UO-31 renal): > 100 µM

SMILES: O=S(=O)(Cc1nc2ccccc2s1)c1nc2ccccc2s1
- TGI (786-0 renal): 34.1 µM
- TGI (A498 renal): 38.6 µM
- TGI (A549 NSCLC): 95 µM
- TGI (ACHN renal): 33 µM
- TGI (BT-549 breast): 34.1 µM
- TGI (CCRF-CEM leukemia): 23.7 µM
- TGI (COLO 205 colon): 33.4 µM
- TGI (DU-145 prostate): 32 µM
- TGI (EKVX NSCLC): 46.2 µM
- TGI (HCC-2998 colon): 30.2 µM
- TGI (HCT-116 colon): 27 µM
- TGI (HCT-15 colon): 32 µM
- TGI (HL-60(TB) leukemia): 24.2 µM
- TGI (HOP-62 NSCLC): > 100 µM
- TGI (HOP-92 NSCLC): 28.1 µM
- TGI (HS 578T breast): 79.3 µM
- TGI (HT29 colon): 37.5 µM
- TGI (IGROV1 ovarian): 39.6 µM
- TGI (K-562 leukemia): 32.2 µM
- TGI (KM12 colon): 35.4 µM
- TGI (LOX IMVI melanoma): 25.6 µM
- TGI (M14 melanoma): 30.5 µM
- TGI (MALME-3M melanoma): 24.9 µM
- TGI (MCF7 breast): 37.1 µM
- TGI (MDA-MB-231 breast): 34 µM
- TGI (MDA-MB-435): 34.4 µM
- TGI (MDA-N): 39.5 µM
- TGI (MOLT-4 leukemia): 39.9 µM
- TGI (NCI-H226 lung): 65.6 µM
- TGI (NCI-H23 lung): 38.9 µM
- TGI (NCI-H460 lung): > 100 µM
- TGI (NCI-H522 lung): 33.9 µM
- TGI (NCI/ADR-RES ovarian): > 100 µM
- TGI (OVCAR-3 ovarian): 28.1 µM
- TGI (OVCAR-4 ovarian): 31.4 µM
- TGI (OVCAR-5 ovarian): 39.4 µM
- TGI (OVCAR-8 ovarian): 55.7 µM
- TGI (PC-3 prostate): 32.6 µM
- TGI (RPMI-8226 leukemia): 37 µM
- TGI (RXF 393 renal): 59.6 µM
- TGI (SF-268 CNS): 42.2 µM
- TGI (SF-295 CNS): 64.2 µM
- TGI (SF-539 CNS): 43.7 µM
- TGI (SK-MEL-2 melanoma): 37.7 µM
- TGI (SK-MEL-28 melanoma): 30.5 µM
- TGI (SK-MEL-5 melanoma): 25.6 µM
- TGI (SK-OV-3 ovarian): > 100 µM
- TGI (SN12C renal): 35.2 µM
- TGI (SNB-19 CNS): 44 µM
- TGI (SNB-75 CNS): 41.3 µM
- TGI (SR leukemia): 21 µM
- TGI (SW-620 colon): 34.6 µM
- TGI (T-47D breast): 53.6 µM
- TGI (TK-10 renal): 35.7 µM
- TGI (U251 CNS): 34.9 µM
- TGI (UACC-257 melanoma): 41.8 µM
- TGI (UACC-62 melanoma): 44.2 µM
- TGI (UO-31 renal): 31.4 µM

From PubChem BioAssay (NCI)
